From article PMC11544713, “The Application of Untargeted Metabolomic Approaches for the Search of Common Bioavailable Metabolites in Human Plasma Samples from Lippia citriodora and Olea europaea Extracts” (Journal of Agricultural and Food Chemistry, 2024) come the findings set out here.

A short description of series [1]: Acute intervention: nutrikinetics of plasma metabolites after ingestion of L. citriodora extract (untargeted HPLC-ESI-QTOF-MS). In outline: (§1)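 Fasted healthy volunteers (n = 8 per extract, placebo n = 9, double-blind) took one 500 mg capsule. Plasma was drawn at 0–10 h, protein-precipitated with methanol:ethanol and analysed by C18 HPLC-ESI-QTOF-MS in negative full scan (m/z 50–1700). Tmax was observed; Cmax and AUC are relative, from deconvoluted peak areas.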

Series [2] in a line: Acute intervention: nutrikinetics of plasma metabolites after ingestion of O. europaea extract (untargeted HPLC-ESI-QTOF-MS). The method in brief: as §1
Setting [3] is: 0.5 h after L. citriodora extract.
Setting [4] is: 1 h after L. citriodora extract.
[5] abbreviates: 2 h after L. citriodora extract.
Setting [6] is: 4 h after L. citriodora extract.
Setting [7] is: 6 h after L. citriodora extract.
The mark [8] stands for this setting: 8 h after L. citriodora extract.
[9] abbreviates: 10 h after L. citriodora extract.
Setting [10] is: human plasma, 500 mg capsule of L. citriodora (LC) extract, oral, mean ± SD.
The mark [11] stands for this setting: 0.5 h after O. europaea extract.
Where [12] appears, read: human plasma, 500 mg capsule of O. europaea (OE) extract, oral, mean ± SD.

Turning to `COc1cc(C(=O)O)ccc1OS(=O)(=O)O` [vanillic acid 4-O-sulfate isomer 1, vanillic acid 4-O-sulfate], the “mean chromatographic area in plasma, T0.5” value in series [1] (setting [3]) worked out at 0; in series [2] (setting [11]) it was 275. Moreover, the results for the “mean chromatographic area in plasma, T1” value in series [1] (setting [4]) and in series [2] (1 h after O. europaea extract) were 0 and 489, respectively. Moreover, the results for the “mean chromatographic area in plasma, T2” value in series [1] (setting [5]) and in series [2] (2 h after O. europaea extract) were 97 and 354, respectively. Also, the “mean chromatographic area in plasma, T4” value in series [1] (setting [6]) amounted to 395; in series [2] (4 h after O. europaea extract) it was 279. Also, the “mean chromatographic area in plasma, T6” value in series [1] (setting [7]) came out at 548; in series [2] (6 h after O. europaea extract) it was 216. For the same compound, the figures for the “mean chromatographic area in plasma, T8” value in series [1] (setting [8]) and in series [2] (8 h after O. europaea extract) were 588 and 137, respectively. In addition, the “mean chromatographic area in plasma, T10” value in series [1] (setting [9]) turned out to be 365; in series [2] (10 h after O. europaea extract), 60. Further, the “AUC: area under the zero-moment curve” value in series [1] (setting [10]) is 3576 ± 3122 relative chromatographic area/h. Moreover, the “Cmax: relative maximum plasma level” value in series [1] (setting [10]) is on record as 874 ± 644 relative chromatographic area; in series [2] (setting [12]), 489 ± 147 relative chromatographic area. Besides, the entries for the “observed Tmax: time required to reach Cmax” value (“observed Tmax: time required” for short) in series [1] (setting [10]) and in series [2] (setting [12]) were 8 ± 3 h and 1.0 ± 0.0 h, respectively.
For homovanillic acid glucuronide, in series [1] (human, in vivo, po, 500 mg), the “AUC: area under the zero-moment curve” value was 1345 ± 1042 relative chromatographic area/h and the “Cmax: relative maximum plasma level” value is on record as 360 ± 219 relative chromatographic area. Besides, in series [1] (in vivo), the “mean chromatographic area in plasma, T0.5” value came out at 0; the “mean chromatographic area in plasma, T1” value is 0; the “mean chromatographic area in plasma, T2” value is recorded as 0; the “mean chromatographic area in plasma, T4” value was found to be 114. In series [1] (in vivo), the “mean chromatographic area in plasma, T6” value came to 232; the “mean chromatographic area in plasma, T8” value is 219; the “mean chromatographic area in plasma, T10” value amounted to 214. Further, the “Cmax: relative maximum plasma level” value in series [2] (human, in vivo, po, 500 mg) is recorded as 199 ± 54 relative chromatographic area. In series [2] (in vivo), the “mean chromatographic area in plasma, T0.5” value is on record as 13; the “mean chromatographic area in plasma, T1” value came out at 94; the “mean chromatographic area in plasma, T2” value is recorded as 99; the “mean chromatographic area in plasma, T4” value came out at 182. In addition, in series [2] (in vivo), the “mean chromatographic area in plasma, T6” value was determined as 141; the “mean chromatographic area in plasma, T8” value is given as 80; the “mean chromatographic area in plasma, T10” value was determined as 58.
On to “homovanillic acid sulfate [homovanillic acid sulfate isomer 2]”, for which, in series [1] (human, in vivo, po, 500 mg), the “AUC: area under the zero-moment curve” value is given as 1771 ± 1599 relative chromatographic area/h, the “Cmax: relative maximum plasma level” value was 476 ± 363 relative chromatographic area and the “observed Tmax: time required” value is 9 ± 2 h. In series [1] (in vivo), the “mean chromatographic area in plasma, T0.5” value is 0; the “mean chromatographic area in plasma, T1” value is 0; the “mean chromatographic area in plasma, T2” value turned out to be 25; the “mean chromatographic area in plasma, T4” value came to 112. For the same compound, in series [1] (in vivo), the “mean chromatographic area in plasma, T6” value is given as 215; the “mean chromatographic area in plasma, T8” value came to 336; the “mean chromatographic area in plasma, T10” value is 408. Also, in series [2] (human, in vivo, po, 500 mg), the “Cmax: relative maximum plasma level” value is listed as 215 ± 68 relative chromatographic area and the “observed Tmax: time required” value is 4 ± 2 h. Further, in series [2] (in vivo), the “mean chromatographic area in plasma, T0.5” value is given as 0; the “mean chromatographic area in plasma, T1” value amounted to 76; the “mean chromatographic area in plasma, T2” value came out at 161; the “mean chromatographic area in plasma, T4” value is on record as 191. In series [2] (in vivo), the “mean chromatographic area in plasma, T6” value amounted to 182; the “mean chromatographic area in plasma, T8” value was 154; the “mean chromatographic area in plasma, T10” value amounted to 130.
Regarding “hydroxytyrosol glucuronide [hydroxytyrosol glucuronide isomer 2]”, the entries for the “mean chromatographic area in plasma, T0.5” value in series [1] (setting [3]) and in series [2] (setting [11]) were 0 and 1726, respectively. Besides, the “mean chromatographic area in plasma, T1” value in series [1] (setting [4]) is listed as 0; in series [2] (1 h after O. europaea extract) it was 2553. Also, the “mean chromatographic area in plasma, T2” value is listed as 0 in series [1] (setting [5]) and 1437 in series [2] (2 h after O. europaea extract). Also, the results for the “mean chromatographic area in plasma, T4” value in series [1] (setting [6]) and in series [2] (4 h after O. europaea extract) were 48 and 507, respectively. The results for the “mean chromatographic area in plasma, T6” value in series [1] (setting [7]) and in series [2] (6 h after O. europaea extract) were 81 and 251, respectively. The “mean chromatographic area in plasma, T8” value in series [1] (setting [8]) came to 34; in series [2] (8 h after O. europaea extract), 161. The “mean chromatographic area in plasma, T10” value in series [1] (setting [9]) is listed as 23; in series [2] (10 h after O. europaea extract) it was 75. Besides, the “AUC: area under the zero-moment curve” value in series [1] (setting [10]) is listed as 350 ± 158 relative chromatographic area/h. Further, the “Cmax: relative maximum plasma level” value in series [1] (setting [10]) is given as 106 ± 17 relative chromatographic area; in series [2] (setting [12]), 2627 ± 1167 relative chromatographic area. In addition, the “observed Tmax: time required” value in series [1] (setting [10]) is 8 ± 2 h; in series [1] (human plasma, 500 mg capsule of L. citriodora (LC) extract, oral, mean ± SD, listed as hydroxytyrosol glucuronide) it was 7 ± 2 h; in series [2] (setting [12]), 0.9 ± 0.2 h; in series [2] (human plasma, 500 mg capsule of O. europaea (OE) extract, oral, mean ± SD, listed as hydroxytyrosol glucuronide) it was 1 h.
On to “hydroxytyrosol sulfate [hydroxytyrosol sulfate isomer 2]”, for which the “mean chromatographic area in plasma, T0.5” value in series [1] (setting [3]) stood at 0; in series [2] (setting [11]), 336. The “mean chromatographic area in plasma, T1” value in series [1] (setting [4]) came to 0; in series [2] (1 h after O. europaea extract), 646. The “mean chromatographic area in plasma, T2” value is recorded as 138 in series [1] (setting [5]) and 605 in series [2] (2 h after O. europaea extract). Further, the “mean chromatographic area in plasma, T4” value in series [1] (setting [6]) is listed as 289; in series [2] (4 h after O. europaea extract), 202. In addition, the “mean chromatographic area in plasma, T6” value in series [1] (setting [7]) stood at 575; in series [2] (6 h after O. europaea extract), 235. For the same compound, the figures for the “mean chromatographic area in plasma, T8” value in series [1] (setting [8]) and in series [2] (8 h after O. europaea extract) were 591 and 140, respectively. The “mean chromatographic area in plasma, T10” value in series [1] (setting [9]) amounted to 686; in series [2] (10 h after O. europaea extract) it was 202. For the same compound, the “AUC: area under the zero-moment curve” value in series [1] (setting [10]) was 3802 ± 2564 relative chromatographic area/h. In addition, the “Cmax: relative maximum plasma level” value is 902 ± 428 relative chromatographic area in series [1] (setting [10]) and 836 ± 359 relative chromatographic area in series [2] (setting [12]). In addition, the “observed Tmax: time required” value in series [1] (setting [10]) came out at 8 ± 2 h; in series [1] (human plasma, 500 mg capsule of L. citriodora (LC) extract, oral, mean ± SD, listed as hydroxytyrosol sulfate) it was 7 ± 2 h; in series [2] (setting [12]), 3 ± 3 h; in series [2] (human plasma, 500 mg capsule of O. europaea (OE) extract, oral, mean ± SD, listed as hydroxytyrosol sulfate), 1 h.
